The text below walks through data of patent publication US20140096967A1, “SALT-TOLERANT ANIONIC SURFACTANT COMPOSITIONS FOR ENHANCED OIL RECOVERY (EOR) APPLICATIONS” (Board of Regents, The University of Texas System, priority 2012, published 2014).

Structures are written as SMILES. Read-outs that look alike come from different tables or passages of the source. Marks after values point to notes of the source that are not given here.

Data set [1] can be described thus: Static adsorption test on disaggregated Berea sandstone core particles. The format is physicochemical. To be noted: 10,000 mg/L NaCl, LSR of 40, 12 hrs. equilibration at 25° C. (FIG. 19). The source says:
Static Adsorption Tests. A static adsorption test was used for measuring surfactant adsorption at solid-water interfaces. The procedures were adopted from the study by Hanna et al. (1977). The adsorbents used for static adsorption tests were particles disaggregated from a Berea sandstone core and sieved through a 60 mesh screen ([…]). The use of 60 mesh screen is based on the consideration that a wider and thus more representative range of particle sizes could be included. The adsorbent grains were heated in the oven overnight and cooled in a desiccator over Drierite™ before use. The surfactant concentration was measured by Total Organic Carbon (TOC) method, which represents the amount of total carbon in the sample. […] The amount of surfactant adsorbed was determined by measuring different concentrations in the solution before and after contact with the adsorbents,
Where Γ (mg/g) is the surfactant adsorption density on the adsorbents; Co and C (mg/L) are surfactant concentrations before and after adsorption tests; V (ml) is the volume of surfactant solution used in the test, and M (gram) is the mass of the adsorbents used in the test. A dimensionless quantity θ can be defined as follows: […]
Equilibrium Adsorption Time. To ensure true equilibrium adsorption, the progression of 16-4-16 adsorption level with time was recorded to identify a suitable duration for equilibration. […]

For data set [2] the following is noted: data from Mukerjee et al. (1971), cited from earlier work.
For data set [3] the following is noted: conventional sodium alkylsulfates; data from O'Lenick; cited from earlier work.

As to `CCCCCCCCCCCCCCCCOS(=O)(=O)[O-].[Na+]` [C16—SO4^− Na^+, sodium hexadecyl sulfate], the “maximum adsorption density, trend among surfactants” value in data set [1] is 16-4-16<SHS<S13-C. Also, the CMC in data set [2] (40° C.) was 580** 10^−3 mmol/L. Further, the “Krafft Point” value in data set [3] is on record as 45* ° C.

As for `CCCCCCCCCCCCOS(=O)(=O)[O-].[Na+]` [C12—SO4^− Na^+], the CMC in data set [2] (30° C.) was 8230** 10^−3 mmol/L; in data set [2] (40° C.), 8600** 10^−3 mmol/L; in data set [2] (60° C.), 10160** 10^−3 mmol/L. For the same compound, the “Krafft Point” value in data set [3] is recorded as 16* ° C.

In the case of `CCCCCCCCCCCCCCOS(=O)(=O)[O-].[Na+]` [C14—SO4^− Na^+], the CMC is on record as 2080** 10^−3 mmol/L in data set [2] (30° C.), 2210** 10^−3 mmol/L in data set [2] (40° C.) and 2770** 10^−3 mmol/L in data set [2] (60° C.). Besides, the “Krafft Point” value in data set [3] is 28* ° C.
